# Measurements published in publication PMC10937556, “Phenolic phytochemistry, in vitro, in silico, in vivo, and mechanistic anti-inflammatory and antioxidant evaluations of Habenaria digitata” (Frontiers in Pharmacology, 2024).
# Where two headings read alike, the source gives them in different places.
# Legend:
# [1] = ABTS free radical scavenging assay
# Protocol: The ABTS anti-radicals’ analysis was carried out according to [Shah et al. (2015)]. The ABTS solution was prepared by dissolving ABTS salt (192 mg) in distilled H2O, transferred to a flask (50 mL), and volume was adjusted. Thereafter, 1 mL of the preceding solution was added to 17 µL of K₂S₂O₈ (140 mM) and placed in the dark for 24 h s. The experiment’s ultimate ABTS dilution was achieved by mixing 1 mL of the reaction mixture with 50 mL of methanol. The ABTS solution (190 µL) was mixed with the sample solution (10 µL) and added to 96-well plates, which were then incubated at room temperature in dark for 2 h. Following incubation, the measurement of ABTS color intensity was conducted using a microplate reader at 734 nm. Positive control solutions were prepared at values of 1,000–62.5 µM. The percentage of ABTS scavenging was determined by using the following equation: % ABTS scavenging=Control−Sample/control×100.
# [2] = DPPH free radical scavenging assay
# Protocol: The DPPH (anti-radicals) investigation was carried out according to our earlier reported protocols. Initially, a methanolic DPPH solution was prepared with a concentration of 0.1%. Subsequently, 100 µL of this solution was mixed with an equal volume of the test samples (100 µL) in 96-well plates, following a 30-min incubation period at 25°C ± 3 °C in the dark. Solutions with concentrations ranging from […] were prepared. Five concentrations of 1,000, 500, 250, 125, and 62.5 µM of the Trolox methanolic solution ([…]) were formed. A color reduction in DPPH was observed after incubation; a microplate reader was used, and absorbance was measured at 540 nm ([Mahnashi et al., 2022a]; [Huneif et al., 2022]). The percentage of scavenging was determined by the formula: Scavenging effect %=control absorbance−sample absorbance/control absorbance×100.
# [3] = molecular target: COX-1 (Ovis aries, UniProt P05979); experiment: Cyclooxygenase COX-1 inhibition assay; format: biochemical; conditions: for inhibition at 62.5 µg/mL / inhibition at 125 µg/mL / inhibition at 500 µg/mL: read-out: % COX-1 inhibition; for inhibition at 1000 µg/mL: 1,000 µg/mL
# [4] = molecular target: T1, 5-LOX (Homo sapiens, UniProt P09917); experiment: 5-Lipoxygenase (5-LOX) inhibition assay; format: biochemical; conditions: for inhibition at 62.5 µg/mL: 62.50 μg/mL; for inhibition at 62.5 µg/mL / inhibition at 125 µg/mL / inhibition at 250 µg/mL / inhibition at 500 µg/mL / inhibition at 1000 µg/mL: read-out: % 5-LOX inhibitions; for inhibition at 1000 µg/mL: 1,000 µg/mL; for % 5-LOX inhibitions: 1,000 μg/mL
# T1 construct: purchased Sigma-Aldrich (local distributor) 437996
# T1 sequence (P09917 1-674): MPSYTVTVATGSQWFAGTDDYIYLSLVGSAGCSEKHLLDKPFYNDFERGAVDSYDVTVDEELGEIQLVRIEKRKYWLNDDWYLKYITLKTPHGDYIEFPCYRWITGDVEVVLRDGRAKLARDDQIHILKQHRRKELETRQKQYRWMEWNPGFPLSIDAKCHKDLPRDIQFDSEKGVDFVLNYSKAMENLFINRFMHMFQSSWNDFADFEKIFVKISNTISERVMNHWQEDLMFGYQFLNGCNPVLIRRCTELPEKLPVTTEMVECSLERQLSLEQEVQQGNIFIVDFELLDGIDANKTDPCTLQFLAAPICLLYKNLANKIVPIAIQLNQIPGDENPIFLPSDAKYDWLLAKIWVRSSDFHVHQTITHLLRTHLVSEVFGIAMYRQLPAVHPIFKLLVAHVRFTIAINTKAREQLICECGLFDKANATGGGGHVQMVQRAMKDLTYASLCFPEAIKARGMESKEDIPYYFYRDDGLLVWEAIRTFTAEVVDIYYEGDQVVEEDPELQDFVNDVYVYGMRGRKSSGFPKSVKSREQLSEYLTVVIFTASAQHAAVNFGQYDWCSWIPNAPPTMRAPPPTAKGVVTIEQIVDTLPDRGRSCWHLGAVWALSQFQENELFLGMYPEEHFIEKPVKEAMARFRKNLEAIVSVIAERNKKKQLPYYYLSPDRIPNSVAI
# Protocol: The 5-LOX inhibitory experiments on H. digitata samples were carried out as per published protocol ([Pervaiz et al., 2022]). Several concentrations of plant samples were made, with concentrations ranging from 31.25 to 1,000 μg/mL. Thereafter, 5-LOX was primed with 10,000 U/mL solutions. Linoleic acid (80 mM) was used as the substrate. Likewise, 50 mM phosphate buffer with a pH of 6.3 was primed. Plant samples of varied quantities were dissolved in 250 µL of phosphate buffer, and then, 250 µL of the lipoxygenase enzyme solution was added and incubated for 5 min at room temperature. A volume of 1,000 µL of the substrate solution with a concentration of 0.6 mM was added to the enzyme solution and shaken. The absorbance at 234 nm was observed. All of the tests were conducted three times. In this test, zileuton served as a positive control. The percentage inhibition was determined using the following equation: Percentage Inhibition=Control Abs. −Sample Abs. /Control Abs. ×100.
# The IC50 values were derived by plotting the inhibitions against the concentrations of the tested sample solution.
# Sequence of COX-1 (P05979 25-600): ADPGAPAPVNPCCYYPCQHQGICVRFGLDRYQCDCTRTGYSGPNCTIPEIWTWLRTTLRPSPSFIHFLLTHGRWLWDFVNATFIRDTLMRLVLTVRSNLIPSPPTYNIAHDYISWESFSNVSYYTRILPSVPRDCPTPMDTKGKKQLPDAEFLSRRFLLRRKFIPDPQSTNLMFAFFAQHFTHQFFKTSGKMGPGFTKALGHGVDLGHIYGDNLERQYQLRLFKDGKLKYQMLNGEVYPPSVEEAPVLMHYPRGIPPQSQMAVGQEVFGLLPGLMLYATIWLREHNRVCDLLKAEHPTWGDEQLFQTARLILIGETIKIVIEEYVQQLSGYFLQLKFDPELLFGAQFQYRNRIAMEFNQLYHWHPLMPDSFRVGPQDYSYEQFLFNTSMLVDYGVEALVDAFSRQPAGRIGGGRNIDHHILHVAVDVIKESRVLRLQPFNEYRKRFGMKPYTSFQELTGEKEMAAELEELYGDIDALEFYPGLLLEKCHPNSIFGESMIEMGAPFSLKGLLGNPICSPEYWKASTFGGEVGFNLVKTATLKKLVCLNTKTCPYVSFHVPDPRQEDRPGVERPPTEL
SMILES,ABTS IC50 [1],ABTS % inhibition ([1]; 62.5 µg/mL),ABTS % inhibition ([1]; 125 µg/mL),ABTS % inhibition ([1]; 250 µg/mL),ABTS % inhibition ([1]; 500 µg/mL),"ABTS % inhibition ([1]; 1,000 µg/mL)",DPPH IC50 [2],DPPH % inhibition ([2]; 62.5 µg/mL),DPPH % inhibition ([2]; 125 µg/mL),DPPH % inhibition ([2]; 250 µg/mL),DPPH % inhibition ([2]; 500 µg/mL),"DPPH % inhibition ([2]; 1,000 µg/mL)",inhibition at 62.5 µg/mL ([3]; 62.50 μg/mL),inhibition at 125 µg/mL ([3]; 125 µg/mL),IC50 [4],inhibition at 62.5 µg/mL [4],inhibition at 125 µg/mL [4],inhibition at 250 µg/mL [4],inhibition at 500 µg/mL [4],inhibition at 1000 µg/mL [4],also measured
"Cc1cnc(O)nc1O [Compound 1, 5-methylpyrimidine-24,4-diol]",0.98 µg/mL,75.90 ± 0.48 %,79.03 ± 0.48 %,84.90 ± 0.96 %,87.65 ± 1.34 %,91.58 ± 1.12 %,0.90 µg/mL,75.00 ± 1.15 %,78.67 ± 0.89 %,83.00 ± 0.58 %,87.03 ± 0.23 %,93.33 ± 0.49 %,45.8 ± 0.9%,55.4 ± 0.2%,58.7 µM,65.68 ± 0.64%,71.42 ± 0.46%,76.53 ± 0.41%,82.45 ± 0.55%,87.63 ± 0.64%,inhibition at 250 µg/mL [3]: 60.6 ± 0.63%; inhibition at 500 µg/mL ([3]; 500 µg/mL): 66.5 ± 0.9%; inhibition at 1000 µg/mL [3]: 73.1 ± 1.04%
"CC1=C(O)C(=O)C(O)CO1 (stereo not shown) [Compound 2, 3,5-dihydroxy-6-methyl-2,3-dihydro-4H-pyran-4-one]",03 µg/mL,68.52 ± 0.38 %,72.64 ± 0.16 %,77.61 ± 1.70 %,81.94 ± 0.45 %,86.47 ± 0.22 %,04 µg/mL,72.74 ± 0.61 %,76.54 ± 0.50 %,81.48 ± 0.64 %,86.86 ± 0.60 %,91.62 ± 0.74 %,40.8 ± 1.06%,46.4 ± 0.62%,73.9 µM,61.35 ± 0.18%,66.2 ± 0.15%,73.42 ± 0.11%,78.62 ± 0.17%,83.53 ± 0.2%,inhibition at 250 µg/mL [3]: 54.6 ± 0.58%; inhibition at 500 µg/mL ([3]; 500 µg/mL): 65.29 ± 0.41%; inhibition at 1000 µg/mL [3]: 71.37 ± 0.56%
"Cc1ccc(C(C)C)c(O)c1 [Compound 3, 2-isopropyl-5-methylphenol]",21 µg/mL,65.00 ± 0.30 %,72.54 ± 0.50 %,76.69 ± 0.77 %,83.67 ± 0.61 %,87.79 ± 0.63 %,17 µg/mL,62.98 ± 0.72 %,67.90 ± 0.96 %,72.91 ± 0.88 %,77.08 ± 0.47 %,81.03 ± 0.35 %,,,174 µM,51.9 ± 1.16%,57.34 ± 0.55%,61.36 ± 0.49%,67.39 ± 0.49%,73.39 ± 0.6%,inhibition at 62.5 µg/mL [3]: 41.3 ± 1.01%; inhibition at 125 µg/mL [3]: 46.7 ± 0.78%; inhibition at 500 µg/mL [3]: 57.9 ± 0.97%
"C=Cc1ccc(O)cc1OC [Compound 4, 3-methoxy-4-vinylphenol]",42 µg/mL,57.00 ± 1.15 %,61.67 ± 0.89 %,65.00 ± 0.58 %,72.03 ± 0.23 %,75.33 ± 0.49 %,40 µg/mL,58.15 ± 0.22 %,63.36 ± 0.71 %,68.39 ± 0.35 %,73.42 ± 0.12 %,77.73 ± 0.03 %,33 ± 1.15%,42.7 ± 0.89%,182 µM,59.8 ± 0.65%,66.7 ± 0.78%,75.7 ± 0.62%,80.76 ± 0.63%,76.7 ± 0.66%,inhibition at 250 µg/mL [3]: 49 ± 0.58%; inhibition at 500 µg/mL ([3]; 500 µg/mL): 63.03 ± 0.23%; inhibition at 1000 µg/mL [3]: 71.33 ± 0.49%; % 5-LOX inhibitions ([4]; listed as Comp 4): 84.83 ± 0.62 %
"C=Cc1cc(OC)c(O)c(OC)c1 [Compound 5, 2,6-dimethoxy-4-vinylphenol]",30 µg/mL,60.59 ± 0.30 %,63.08 ± 1.04 %,68.76 ± 0.61 %,74.31 ± 0.58 %,79.49 ± 0.60 %,16 µg/mL,60.48 ± 0.23 %,63.99 ± 0.19 %,67.05 ± 0.13 %,71.75 ± 0.21 %,75.28 ± 0.42 %,29.15 ± 0.22%,41.4 ± 0.71%,171 µM,49.9 ± 0.65%,57.2 ± 0.57%,65.5 ± 1.04%,71.3 ± 1.11%,84.83 ± 0.62%,inhibition at 250 µg/mL [3]: 47.39 ± 0.35%; inhibition at 500 µg/mL ([3]; 500 µg/mL): 57.42 ± 0.12%; inhibition at 1000 µg/mL [3]: 67.73 ± 0.03%; % 5-LOX inhibitions ([4]; listed as Comp 5): 76.7 ± 0.66 %
